Experimental data reported in publication PMC10076643, “Design, synthesis and anticancer activity studies of 3-(coumarin-3-yl)-acrolein derivatives: Evidenced by integrating network pharmacology and vitro assay” (Frontiers in Pharmacology, 2023).

Key:
KB cells [1] = assay: Scratch wound healing assay; format: cell-based, human; settings: different concentrations (0.5 IC50, IC50, 2 IC50), after 24 h
Experimental: Wound healing assay and transwell assay were performed to investigate the effect of compound 6e on the migratory capability of KB cells.
In vitro wound-healing assay, KB cells (5 × 10^5 cells/well) were seeded into 6-well plates and incubated at 37 °C in humidified atmosphere with 5% CO2 for 12 h. As the cells were adherent to the wall and the degree of fusion reached more than 90%, cell layers were gently scratched with a 200 μL pipette tip. […] Images of cells were photographed with the inverted fluorescence microscope (Leica DMi8, Germany) at 0 h and 24 h. The areas that were not covered by cells in the scratch wound were quantified by using ImageJ. Then the values obtained in each group were expressed by the percentage of wound closure of cells in the control group. The experiments were performed in triplicate.

[2] = system: MCF-7 (human breast cancer cell line); assay: MTT antiproliferative assay, MCF-7; format: cell-based; settings: MCF7, 72 h
From the text: (§1) All the synthesized compounds were screened for in vitro antiproliferative activity against four human cancer cell lines A549 (human lung cancer cell line), KB (human oral epidermoid carcinoma cell line), Hela (human cervical carcinoma cell line), MCF-7 (human breast cancer cell line) and two human normal cell lines HUVEC (human umbilical vein endothelial cell) and LO2 (human normal hepatocytes) through the 3-(4,5-dimethyl-2-thiazolyl)-2,5-diphenyl-2-H-tetrazolium bromide (MTT) assay.
(§2) Non-small-cell lung cancer (A549), oral epidermoid carcinoma (KB), cervical cancer (Hela) and breast cancer (MCF-7) cells were purchased from the American Type Culture Collection (ATCC, America). Human umbilical vein endothelial cell (HUVEC) and human normal hepatocytes (LO2) cells were provided by Guangzhou Medical University (Guangzhou, China). A549 and KB cells were cultured in RMPI-1640 medium (Gibco, America). Hela, MCF-7 and LO2 cells were cultured in DMEM medium (Gibco, America). HUVEC cells were cultured in Ham’s F-12K medium (Gibco, America). All the mediums were supplemented with 10% fetal bovine serum (FBS) (BI, State of Israel), 100 U/mL penicillin and 100 μg/mL streptomycin (Gibco, America), and all the cells were incubated in a sterile incubator at 37°C in an environment of 5% CO2. The tested compounds were dissolved in dimethyl sulfoxide (DMSO) at a concentration of 10 mM, and then diluted into different concentration of solutions by culture medium. The final concentration of DMSO was <0.01% (v/v) in all drug treatment groups to avoid the toxicity in the biological system. Untreated cells were used as a blank control and 5-fluorouracil treated cells were used as a positive control.
(§3) The incubated tumor cells were planted into 96-well plates (4×10^3 cells/well). After 24 h, the cells were adherent to the wall and treated with the compound 6e in different concentrations (0.78, 1.56, 3.12, 6.25, 12.50, 25.00, and 50.00 μM) for 72 h. Afterwards, the medium was supplemented with 10 µL MTT solution. After 4 h, the culture medium was removed and 100 µL DMSO was added. The absorbance was determined at the wavelength of 540 nm and 655 nm using a microplate reader (BioTek Epoch, America). The results were collected from three independent experiments. The IC50 was then calculated by using GraphPad Prism Software (version 7.0) and non-linear regression (curve fit).

[3] = system: AKT phosphorylation in KB cells; assay: Western blot, pAKT/AKT; format: cell-based, human; settings: increased concentration (0.40, 0.80, 1.60 μM), 24 h
From the text: (§4) Based on the results of network pharmacology, the key proteins related to PI3K/AKT pathway were detected by Western blotting to explore the antitumor mechanism of compound 6e. […] Such an inconsistency might be due to a compensatory increase in PI3K level after the reduction of AKT phosphorylation level. Additionally, the active-caspase 3 protein, anti-apoptosis protein Bcl-2 and pro-apoptosis protein Bax were further analyzed. Caspase-3 normally exists in the cytoplasm as zymogen. During the early stage of apoptosis, caspase-3 (32 KD) is cleaved to the active 17-kD caspase-3 fragment, which is responsible for morphological and biochemical changes in apoptosis. Bcl-2 and Bax are the […] located on the mitochondrial membrane and capable of controlling the MMP (ΔΨm) and the activation of caspase cascade.
(§5) A total of 4 × 10^5 KB cells were seeded into 6-well and grown for overnight. Then the cells adherent to the wall were treated with compound 6e in different concentrations (0, 0.40, 0.80, 1.60 μM) for 24 h. After that, cells were collected, SDS lysate, 100X protease inhibitor and 50X phosphorylation inhibitor were added in a certain proportion to lyse the cells. The protein content was determined by BCA reagent (Beyotime, China) according to the standard curve. […]

Bcl-2 in KB cells = assay: Western blot, Bcl-2; format: cell-based, human; settings: 0.40 μM, 24 h
From the text: as §4, §5

KB cells [4] = assay: Transwell invasion assay (Matrigel); format: cell-based, human; settings: 2 IC50, 48 h
Experimental: Transwell invasion assay was carried out to evaluate the effect of compound 6e on KB cell invasion.
For invasion assay, the transwells (8 μm pore size, Corning Incorporated) were precoated with 40 μL Matrigel for 2 h at 37°C to achieve solidification. KB cells were harvested and resuspended in serum-free medium, treated with different concentrations of compound 6e (0.5 IC50, IC50, 2 IC50), and added into the upper wells of the transwell chamber at density of 1×10^5 cells/200 μL. Then 600 μL of RPMI-1640 containing 10% FBS was added into each lower chamber. After 48 h, the invaded cells in the lower champers were fixed with paraformaldehyde for 1 h and stained with crystal violet solution for 2 h. The non-invading cells in the upper chambers of the transwell plates were scraped away by cotton swabs. Next, the chambers were washed with PBS. The invaded cells were then imaged with the inverted fluorescence microscope (Leica DMi8, Germany) and counted with ImageJ software for three independent fields randomly.

[5] = system: LO2 (human normal hepatocytes); assay: MTT antiproliferative assay, LO2 normal cells; format: cell-based; settings: Hepatocyte, 72 h
From the text: as §1, §2, §3

- IC50 [2]: 14.8 ± 0.28 µM
- melting point: 223 to 225 °C
SMILES: O=CC=C(Cl)c1cc2ccc(OCc3ccccc3)cc2oc1=O [Compound 6e, 3-(7-(Benzyloxy)-2-oxo-2H-chromen-3-yl)-3-chloroacrylaldehyde]
- scratched gaps of KB cells (KB cells [1]): wider than that of the control group and 5-FU group
- pAKT/AKT ratios [3]: remarkably decreased
- expression of Bcl-2 compared with the control group (Bcl-2 in KB cells): visibly decreased
- proportion of Bcl-2 to Bax (Bcl-2 in KB cells): decrease
- KB cell invasion reduced (KB cells [4]): more than 64%
- IC50 [5]: 50.13 ± 0.03 µM
